For assay [1], the system named is THOC7. Description: THOC7 turnover, cycloheximide / MG132. It is filed as cell-based, human. The conditions noted are these: NMT1/2 KD, HeLa, n = 3, 'unaffected'. The method, then: (§1) To assess this, HeLa cells were transfected with NMT1/2 siRNA or left untreated and analysed after addition of cycloheximide (8 h) to block protein synthesis or MG132 (4 h) to inhibit proteasomal degradation.
(§2) 124 Supplementary Fig. 5. NMT1/2 knockdown leads to an increased turnover of SFKs
(§3) 125 and overexpression of DCAF10 reduces SFK levels after NMT1/2 knockdown. […]
(§4) 130 overexpression. Untreated: purple; with NMT1/2 RNAi: blue. Individual data points are
(§5) 131 indicated (n = 2 or 3 independent biological replicates). MG132 = proteasome inhibitor;
(§6) 132 CHX = cycloheximide translational inhibitor. d) HeLa cells were treated for 72 h with and
(§7) 133 without NMT1/2 siRNA and treated with cycloheximide or MG132 for the indicated
(§8) 134 periods of time. Representative WBs are shown. Filled circles indicate treatment; empty
(§9) 135 circles indicate no treatment. e-h) Fold-change analysis of protein expression levels under
(§10) 136 the indicated conditions. Left: fold change after 8 h cycloheximide treatment of (e) Lyn,
(§11) 137 (f) Fyn, (g) Src and (h) THOC7. […]
(§12) 413 knockdown, the transfection reagent Lipofectamine RNAiMAX (Invitrogen, Thermo
(§13) 414 Fisher Scientific, Waltham, MA, USA) was used at a final dilution of 1:333 (3 μL/mL of
(§14) 415 medium). Pools of siRNAs, including siNMT1, siNMT2, siDCAF10, siZYG11B, and
(§15) 416 siZER1, or combinations of different siRNAs, were reverse transfected at a concentration […]

For assay [2], the system named is Fyn. Briefly: Fyn turnover, cycloheximide / MG132. The class given is cell-based, human. The conditions noted are these: HeLa, n = 3. The method, then: as §1, §2, §3, §4, §5, §6, §7, §8, §9, §10, §11
410 HeLa, DLD-1 and all thereof derived stable cell lines, and RPE-1 cells were grown in
412 serum (FBS). Cells were counted and diluted to 100,000 cells/mL. For siRNA
as §12, §13
415 medium). […]

Assay [3] deals with Lyn. Description: Lyn turnover, cycloheximide / MG132. It is filed as cell-based, human. The following applies: HeLa, n = 3. The method, then:
as §1, §2, §3, §4, §5, §6, §7, §8, §9, §10, §11, §12, §13, §14, §15

The subject of assay [4] is Src. Description: Src turnover, cycloheximide / MG132. It is filed as cell-based, human. The conditions noted are these: HeLa, n = 3. The method, then:
as §1, §2, §3, §4, §5, §6, §7, §8, §9, §10, §11, §12, §13, §14, §15

Assay [5] relates to CUL4A-DDB1-DCAF10. Description: In vitro ubiquitination of Lyn-GFP variants by CUL4A-DDB1-DCAF10. The following applies: Lyn-GFP variants, NMT1/2 siRNA. The class given is biochemical, human. The source says: Lyn^WT-GFP was ubiquitinated by the WT E3 complex in both conditions; however, unlike in vitro ubiquitination with endogenous Lyn (Fig. 5c, d), ubiquitination increased ~6-fold under NMT1/2 siRNA conditions. This is consistent with DCAF10 being limiting and overexpressed Lyn-GFP, accumulating an acetylated fraction available for DCAF10 in vitro. Then, we performed IPs for all Nt variants under NMT1/2 siRNA conditions (Fig. 6d, h–i). […] In vitro ubiquitination assays using untreated cell lysates led to similar results (Supplementary Fig. 7h, i).
(§16) Reactions contained E1, UBCH5B (E2), ubiquitin, Mg-ATP in ligation buffer and were incubated with bead-bound substrates, followed by washing and immunoblot detection of ubiquitinated species (anti-ubiquitin), with loading controls (anti-Lyn, -Fyn, -Src or -GFP) (n = 3 independent enzymatic assays). Complete reagent lists, complex preparation, substrate IP conditions, wash buffers, and gel/blot parameters are provided in the Supplementary Methods and Tables.
(§17) 357 (v/v) glycerol, 2 mM TCEP, supplemented with Protease Inhibitor Cocktail), and lysed
358 by sonication. Lysates were cleared by centrifugation at 28,000 rpm for 45 min at 4 °C
359 using a JA-30.50 rotor (Beckman Coulter, Brea, CA, USA). The cleared and filtered (0.8
360 µm) lysate was applied to 1 mL of Strep-Tactin®XT 4Flow® resin (iba), pre-equilibrated
361 once with wash buffer (100 mM Tris-HCl pH 8.0, 150 mM NaCl, 1 mM EDTA) and lysis
362 buffer. The lysate was incubated on a tube roller for 16 h at 4 °C. After incubation, beads
363 were washed with 50 mL of lysis buffer. Bound proteins were eluted with 10 mL of lysis
364 buffer supplemented with 50 mM biotin, after 15 min incubation on a tube roller at 4 °C.
366 Superdex 200 10/300 or 16/60 SEC column (GE Healthcare, Chicago, IL, USA),
367 preequilibrated in SEC buffer (250 mM Tris pH 7.5, 250 mM NaCl, 10% (v/v) glycerol,
370 Purified proteins were visualized during and after the purification by SDS-gels containing
371 TCE (2,2,2-trichloroethanol)62. The identity of proteins was confirmed by WB and MS.
373 In vitro ubiquitination assays
374 The in vitro ubiquitination assays were performed as previously described8. In brief,
375 E1 (50 nM), UBCH5B (250 nM), ubiquitin (1.5 µg), Mg-ATP (3 mM), ligation buffer,
376 and water were pre-mixed. The premix was divided, and either CUL4A-RBX1-
378 RBX1DDB1 (-DCAF10) (250 nM each) was added. 15 μL of each premix were incubated
379 with substrates (endogenous Lyn or Lyn-GFP constructs) bound to beads for 1 h at 30°C
380 with shaking. Samples were then washed four to five times with a buffer containing 50 […]
(§18) 382 EDTA, and loaded on a gradient gel (4–15%). Ubiquitination of substrates was assessed
(§19) 383 by WB using an anti-ubiquitin antibody. Equal substrate loading was evaluated by anti- […]

The test system of assay [6] is Fyn. Briefly: In vitro ubiquitination of immunoprecipitated Fyn. The class given is biochemical, human. The conditions noted are these: 250 nM E3 complex, n = 3.
From the text: (§20) Having established cellular regulation by DCAF10 under reduced N-myristoylation, we aimed to test whether CUL4A-DDB1-DCAF10 directly ubiquitinates SFKs. […] As we expect NMT1/2 depletion to cause a destabilization of SFKs, their equal or even greater ubiquitination in IPs from untreated cells relative to NMT1/2-depleted cells was unanticipated. We speculate that (i) Nt-acetylated SFKs may degrade rapidly, preventing their accumulation upon NMT1/2 depletion; (ii) an acetylated fraction of SFKs may exist under physiological conditions; (iii) DCAF10 might recognize additional surfaces.
as §16, §17
(§21) 358 by sonication. Lysates were cleared by centrifugation at 28,000 rpm for 45 min at 4 °C […]
as §18, §19

The subject of assay [7] is Lyn. Briefly: In vitro ubiquitination of immunoprecipitated Lyn. It is filed as biochemical, human. The following applies: 250 nM E3 complex, 1 h 30°C, Ub normalized to bait, n = 3.
From the text: as §20, §16, §17, §21, §18, §19

For assay [8], the system named is Src. Description: In vitro ubiquitination of immunoprecipitated Src. The class given is biochemical, human. The conditions noted are these: 250 nM E3 complex, n = 3.
From the text: as §20, §16, §17, §21, §18, §19

Setting [9] is: cycloheximide 100 µg/mL 8 h, NMT1/2 KD relative to cycloheximide-treated control.
[10] abbreviates: IP from NMT1/2-depleted HeLa cells.

The values below come from PMC12775124, “CUL4A-DDB1-DCAF10 is an N-recognin for N-terminally acetylated Src kinases” (Nature Communications, 2026).

Where a SMILES comes first, the peptide text is derived from it. The star is where a group is joined. Cbz = O=C(OCc1ccccc1)*

As for `C[C@@H]1C[C@@H]([C@H](O)CC2CC(=O)NC(=O)C2)C(=O)[C@@H](C)C1` [Cycloheximide], the THOC7 decrease in assay [1] (cycloheximide 100 µg/mL 8 h) was 1.1 fold. In addition, the Fyn decrease in assay [2] (setting [9]) is recorded as 1.5 fold. Besides, in assay [3] (setting [9]), the Lyn decrease amounted to 2 fold. The Src decrease in assay [4] (setting [9]) is given as 1.3 fold.

For `CC(C)C[C@@H](C=O)NC(=O)[C@H](CC(C)C)NC(=O)[C@H](CC(C)C)NC(=O)OCc1ccccc1` [MG132] (Cbz-Leu-Leu-Leu-aldehyde), the THOC7 increase in assay [1] (MG132 10 µM 4 h) is recorded as 1.1 fold. In addition, the Fyn increase in assay [2] (MG132 10 µM 4 h, NMT1/2 KD) is recorded as 1.6 fold. Moreover, in assay [3] (MG132 10 µM 4 h, NMT1/2 KD), the Lyn increase is listed as 1.6 fold. Further, the Src increase in assay [4] (MG132 10 µM 4 h, NMT1/2 KD) was 2 fold.

With “RBX1^mut: catalytically inactive variant complex (RBX1 C75A, H77A)”, the “In vitro ubiquitination (in words)” value in assay [5] is reported as “failed to ubiquitinate any variant above background”.

Consider “WT: catalytically active E3 ligase complex of full-length CUL4A, DDB1, DCAF10 and RBX1”, for which the “Fyn ubiquitination, ratio relative to RBX1^mut” value in assay [6] (setting [10]) was 2.27 fold; in assay [6] (IP from control HeLa cells), 2.73 fold. Also, the “Lyn ubiquitination, ratio relative to RBX1^mut” value is given as 2.18 fold in assay [7] (setting [10]) and 2.58 fold in assay [7] (IP from control HeLa cells). The “Src ubiquitination, ratio relative to RBX1^mut” value came out at 2.03 fold in assay [8] (setting [10]) and 3.0 fold in assay [8] (IP from control HeLa cells).
